Target: T1, PYL-MCP and LambdaN-ABI (Arabidopsis thaliana, UniProt Q8VZS8)
T1 construct: expressed in transfected cells; host or cells: HEK293T
Assay: Split-pegRNA recording of abscisic acid (ABA)-induced dimerization of PYL-MCP and LambdaN-ABI
Format: cell-based
Conditions: PYL-ABI pair, abscisic acid added to cell culture
Excerpt: FIG. 3. Recording protein-protein interaction and small molecule exposure using Split-pegRNA recorders. a-b. Design of Split-pegRNA recorder with protein adaptors to record protein-protein interaction (a) and exposure to small molecule (b). c. Normalized editing efficiency of different pairs of constructs tagged with MCP and LambdaN adaptors. Editing efficiencies are scaled (“normalized”) to positive editing control of CTT insertion to HEK3 locus by epegRNA (“eCTT control”). In MCP-LambdaN condition, a single protein-expression construct with MCP tethered with LambdaN was transfected instead of a pair of protein-expression constructs. […]
In the past 30 years, several chemicals have been identified as critical signaling molecules for promoting protein-protein interactions^8. We reasoned that the exposure of these “molecular glue” small molecules to cells can be recorded into the genome using specifically engineered split-pegRNA recorders. […]
Sequencing reads from Illumina MiSeq™ and NextSeq™ platforms are first demultiplexed using BCL2fastq software (Illumina). […] Editing efficiencies were calculated using pattern-matching software such as Regular Expression (package REGEX) in Python, counting correct amplicon reads with or without intended edits (CTT insertion to HEK3 locus^1).

T1 sequence (Q8VZS8 other isoform, or with tags, fused parts or gaps): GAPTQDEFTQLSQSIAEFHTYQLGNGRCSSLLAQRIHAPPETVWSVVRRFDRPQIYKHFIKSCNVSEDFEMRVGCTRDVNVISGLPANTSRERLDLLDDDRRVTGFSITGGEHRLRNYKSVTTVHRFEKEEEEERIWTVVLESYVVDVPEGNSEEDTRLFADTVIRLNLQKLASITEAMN
T1 sequence (P49597 other isoform, or with tags, fused parts or gaps D143A, further chain): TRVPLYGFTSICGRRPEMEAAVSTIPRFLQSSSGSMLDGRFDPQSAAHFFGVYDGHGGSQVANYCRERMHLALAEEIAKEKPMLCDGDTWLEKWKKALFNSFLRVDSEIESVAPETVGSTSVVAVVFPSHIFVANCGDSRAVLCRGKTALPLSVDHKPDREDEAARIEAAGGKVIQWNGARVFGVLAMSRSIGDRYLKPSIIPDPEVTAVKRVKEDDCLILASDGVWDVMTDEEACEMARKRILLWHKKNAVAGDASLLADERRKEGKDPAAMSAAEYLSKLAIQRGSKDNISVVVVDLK

How did the “change in editing efficiency on addition of small molecule” value turn out when `CC1=CC(=O)CC(C)(C)[C@@]1(O)/C=C/C(C)=C\C(=O)O` [Abscisic acid] was run?
Its value is “strong increase in the editing efficiency”.
